Where “and” joins values, the source holds several entries; their conditions need not be identical. Equal entries are not always repeated.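 Interpolation was linear, between the two tested concentrations surrounding the appropriate level; five concentrations were tested over 48 hours in 96-well plates. GI50: concentration for 50% inhibition of growth. TGI marks complete inhibition of growth.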
What was measured:
Assay in all cases: NCI-60 cell line screen, 48 h
CAKI-1 renal = tested on: CAKI-1 renal
TK-10 renal = tested on: TK-10 renal
MDA-MB-231 breast = tested on: MDA-MB-231 breast
KM12 colon = tested on: KM12 colon
SK-OV-3 ovarian = tested on: SK-OV-3 ovarian
SF-268 CNS = tested on: SF-268 CNS
SK-MEL-28 melanoma = tested on: SK-MEL-28 melanoma
HCT-116 colon = tested on: HCT-116 colon
PC-3 prostate = tested on: PC-3 prostate
NCI-H460 lung = tested on: NCI-H460 lung

Compound | TGI (CAKI-1 renal) | TGI (TK-10 renal) | TGI (MDA-MB-231 breast) | TGI (KM12 colon) | TGI (SK-OV-3 ovarian) | TGI (SF-268 CNS) | TGI (SK-MEL-28 melanoma) | TGI (HCT-116 colon) | TGI (PC-3 prostate) | TGI (NCI-H460 lung) | GI50 (CAKI-1 renal) | GI50 (TK-10 renal) | GI50 (MDA-MB-231 breast) | GI50 (KM12 colon) | GI50 (SK-OV-3 ovarian) | GI50 (SF-268 CNS) | GI50 (SK-MEL-28 melanoma) | GI50 (HCT-116 colon) | GI50 (PC-3 prostate) | GI50 (NCI-H460 lung)
N=C1C(O)C2(I)c3ccccc3N3C(=N)C(O)C4c5ccccc5N1C4C32 (stereo not drawn) | > 100 µM | > 100 µM | 67.8 µM | 34.8 µM | > 100 µM | > 100 µM | > 100 µM | > 100 µM | > 100 µM | > 100 µM | – | – | – | – | – | – | – | – | – | –
CC1=C([Se]CC(OC(=O)CC[Se]c2ccccc2)C(=O)NC(C)(C)C)C(=O)c2ccccc2C1=O (stereo not drawn) | 4.58 µM | 3.62 µM | 3.01 µM | 3.2 µM | 2.81 µM | 3.29 µM | 3.55 µM | 2.86 µM | 2.8 µM | 2.02 µM | 2.37 µM | 1.99 µM | 1.55 µM | 1.59 µM | 1.45 µM | 1.76 µM | 2.08 µM | 1.47 µM | 1.48 µM | 0.426 µM
c1ccc(C2ONC3=NCCN32)cc1 (stereo not drawn) | > 100 µM | > 100 µM | > 100 µM | > 100 µM | > 100 µM | > 100 µM | > 100 µM | > 100 µM | 78.2 µM | > 100 µM | 36.1 µM | > 100 µM | 37.2 µM | 51.3 µM | 37 µM | 54.3 µM | > 100 µM | 30.3 µM | 18.8 µM | 44.9 µM
C=C1CCC2C3(C)COC(C)(C)OC3CCC2(C)C1C/C=C1/C(=O)OCC1OC(C)=O (stereo not drawn) | 13 µM | 16.3 µM | 22.6 µM | 13.4 µM | 25.7 µM | 17.6 µM | 4.94 µM | 2.31 µM | 26.2 µM | 17.7 µM | 4.92 µM | 5.24 µM | 7.07 µM | 3.88 µM | 12.5 µM | 5.83 µM | 2.21 µM | 1.1 µM | 10.2 µM | 5.24 µM
C=CCc1c(Cl)nc(Cl)nc1Cl | 0.0367 µM | 3.35 µM | 1.82 µM | 0.888 µM | 9.12 µM | 14.4 µM | 1.93 µM | 1.18 µM | 2.92 µM | 3.55 µM | – | – | – | – | – | – | – | – | – | –
Cn1ncc(-c2ccc3c(=O)[nH]nc(CN)c3c2)c1-c1c(F)c(Cl)cc(OC2CC2)c1C#N | 24.1 µM and 23.6 µM | 31.8 µM and 27.2 µM | 29.8 µM and 28.4 µM | 28.3 µM and 25.6 µM | 40.5 µM and 33.3 µM | 28.8 µM and 26.7 µM | 27.8 µM and 27.2 µM | 29.1 µM and 27.5 µM | 66.8 µM and 48.2 µM | 28.8 µM and 26.7 µM | 11.6 µM and 11.2 µM | 16.2 µM and 13.7 µM | 14.7 µM and 13.8 µM | 13.9 µM and 12.4 µM | 20.4 µM and 17.4 µM | 14.1 µM and 12.8 µM | 14.3 µM and 13.7 µM | 13.1 µM and 12.8 µM | 19.9 µM and 17.1 µM | 13.6 µM and 12.4 µM
N#CC(C#N)=C/C=C(\Cl)c1ccc(Cl)cc1 | 12.6 µM | 19.2 µM | 14 µM | 44.1 µM | > 52.7 µM | 50.5 µM | 45 µM | 3.76 µM | > 46.2 µM | > 100 µM | 3.78 µM | 4.66 µM | 2.54 µM | 15 µM | 9.96 µM | 14.1 µM | 2.38 µM | 1.58 µM | 8.62 µM | 25.1 µM
C1CSCCCSCCCSCCCSCCCSCCCSCCCSCCCSC1 | > 100 µM | > 100 µM | > 100 µM | > 100 µM | > 100 µM | > 100 µM | > 100 µM | > 100 µM | > 100 µM | > 100 µM | – | – | – | – | – | – | – | – | – | –
O=C(c1ccc2ccccc2c1)c1c(C(F)(F)F)n([O-])c2ccc(C(F)(F)F)cc2[n+]1=O | 0.73 µM | 3.07 µM | 2.95 µM | 2.39 µM | 3.2 µM | 2.37 µM | 2.86 µM | 1.16 µM | 1.42 µM | 3.69 µM | 0.28 µM | 1.67 µM | 1.48 µM | 0.961 µM | 1.79 µM | 0.783 µM | 1.48 µM | 0.498 µM | 0.407 µM | 1.8 µM
CC(CO)Nc1cc(-c2[nH]c3cccnc3c2-c2ccc(F)cc2)ccn1 (stereo not drawn) | > 25 µM | > 25 µM | > 25 µM | > 25 µM | > 25 µM | > 25 µM | > 25 µM | > 25 µM | > 25 µM | > 25 µM | 8.23 µM | 6.86 µM | 19.3 µM | 19.1 µM | 15 µM | 16.7 µM | > 25 µM | 13.4 µM | 21.5 µM | 8.16 µM
COc1ccc(C2=Nn3c(nnc3-c3cc(Cl)cc(Cl)c3Cl)SC2)cc1 | > 49.7 µM | > 53.9 µM | 26.2 µM | 8.89 µM | > 100 µM | > 100 µM | > 100 µM | > 100 µM | > 100 µM | > 100 µM | 0.562 µM | 2.26 µM | 0.81 µM | 0.384 µM | 0.522 µM | 1.3 µM | – | 0.393 µM | 0.687 µM | 0.502 µM
CC(=O)c1c(O)c(C)c(O)c(Cc2c(O)c3c(c(C(=O)/C=C/c4ccccc4)c2O)OC(C)(C)C=C3)c1O | 9.07 µM | > 100 µM | 6.86 µM | 16.7 µM | 15.1 µM | 85.7 µM | 14.9 µM | 10.2 µM | 5.18 µM | 16.4 µM | – | – | – | – | – | – | – | – | – | –
Cc1c2cnccc2c(C)c2c1c1cc(C#N)ccc1n2C | 1.34 µM | 1.62 µM | 1.1 µM | 1.98 µM | 0.92 µM | 1.59 µM | 0.737 µM | 0.593 µM | 1.11 µM | 0.427 µM | 0.0929 µM | 0.266 µM | 0.237 µM | 0.243 µM | 0.245 µM | 0.209 µM | 0.285 µM | 0.0434 µM | 0.217 µM | 0.124 µM
Nc1ncn([C@@H]2S[C@H](CO)[C@@H](O)[C@@H]2F)c(=O)n1 | > 100 µM | > 100 µM | > 100 µM | > 100 µM | > 100 µM | > 100 µM | > 100 µM | > 100 µM | > 100 µM | > 100 µM | 0.322 µM | > 100 µM | > 100 µM | 21.4 µM | 2.94 µM | 4.28 µM | > 100 µM | 0.265 µM | – | 0.442 µM

— PubChem BioAssay (NCI)
